According to patent US20220249413A1, “SWELL 1 MODULATORS FOR TREATMENT OF NON-ALCOHOLIC FATTY LIVER DISEASE, IMMUNE DEFICIENCIES, MALE INFERTILITY AND VASCULAR DISEASES” (priority 2019, published 2022):

What was measured:
SWELL1 = SWELL1 expression in adipose tissue of treated T2D mice (Western blot); assay type: in vivo, mouse; settings: 5 mg/kg i.p.
Excerpt: Patients Human islets and adipocytes were obtained and cultured as described previously (Zhang et al., Nat Cell Biol, 19, 504-517, 2017; Kang et al., Nature Communications, 9, 367, 2018). The Patients involved in the study were anonymous and information such as gender, age, HbA1c, glucose levels and BMI only were available to the research team. The study was approved and carried out as per the guidelines of the University of Iowa Institutional Review Board (IRB). Animals All experimental procedures involving mice were approved by the Institutional Animal Care and Use Committee of the University of Iowa and Washington University at St. Louis. All C57BL/6 mice involved in study were purchased from Charles River Labs. Both KK.Cg-Ay/J (KKA^y) and KK.Cg-Aa/J (KKA^a) mice involved in study were gender and age-matched mice obtained from Jackson Labs (Stock No: 002468) and bred up for experiments. The mice were fed ad libitum with either regular chow (RC) or high-fat diet (Research Diets, Inc., 60 kcal % fat) with free access to water and housed in a light-, temperature- and humidity-controlled room. For high-fat diet (HFD) studies, only male mice were used and were started on HFD regimen at the age of 6-9 weeks. For all experiments involving KKA^y and KKA^a mice, both males and females were used at approximately 50/50 ratio. […] Based on GFP fluorescence, viral transduction efficiency was ˜90%. […]

[1] = Metabolic phenotyping: fasting glucose, GTT, ITT; assay type: in vivo, mouse
Excerpt: Patients Human islets and adipocytes were obtained and cultured as described previously (Zhang et al., Nat Cell Biol, 19, 504-517, 2017; Kang et al., Nature Communications, 9, 367, 2018). The Patients involved in the study were anonymous and information such as gender, age, HbA1c, glucose levels and BMI only were available to the research team. The study was approved and carried out as per the guidelines of the University of Iowa Institutional Review Board (IRB). Animals All experimental procedures involving mice were approved by the Institutional Animal Care and Use Committee of the University of Iowa and Washington University at St. Louis. All C57BL/6 mice involved in study were purchased from Charles River Labs. Both KK.Cg-Ay/J (KKA^y) and KK.Cg-Aa/J (KKA^a) mice involved in study were gender and age-matched mice obtained from Jackson Labs (Stock No: 002468) and bred up for experiments. The mice were fed ad libitum with either regular chow (RC) or high-fat diet (Research Diets, Inc., 60 kcal % fat) with free access to water and housed in a light-, temperature- and humidity-controlled room. For high-fat diet (HFD) studies, only male mice were used and were started on HFD regimen at the age of 6-9 weeks. For all experiments involving KKA^y and KKA^a mice, both males and females were used at approximately 50/50 ratio. In all experiments involving mice, investigators were kept blinded both during the experiments and subsequent analysis. Smod1 (DCPIB) treatment Smod1 (DCPIB, Tocris, #D1540), was dissolved in Kolliphor® EL (Sigma, #C5135). Either vehicle (Kolliphor® EL) or Smod1 (5 mg/kg of body weight/day) were injected (intraperitoneal, i.p.) using 1 cc syringe/26G/[…] needle daily for 4-10 days, and in one experiment, daily for 8 weeks. Adenovirus Adenovirus type 5 with Ad5-RIP2-GFP (4.1×10^10 PFU/ml) and Ad5-CAG-LoxP-stop-LoxP-3× Flag-SWELL1 (1×10^10 PFU/ml) were obtained from Vector Biolabs. Adenovirus type 5 with Ad5-CMV-Cre-wt-IRES-eGFP (8×10^10 PFU/ml) was obtained from the University of Iowa Viral Vector Core. Cell culture Wildtype (WT) and SWELL1 knockout (KO) 3T3-F442A (Sigma-Aldrich) cells were cultured and differentiated as described previously (Zhang et al., Nat Cell Biol, 19, 504-517, 2017). Preadipocytes were maintained in 90% DMEM (25 mM D-Glucose and 4 mM L-Glutamine) containing 10% fetal bovine serum (FBS) and 100 IU penicillin and 100 μg/ml streptomycin on collagen-coated (rat tail type-I collagen, Corning) plates. Upon reaching confluency, the cells were differentiated in the above-mentioned media supplemented with 5 μg/ml insulin (Cell Applications) and replenished every other day with the differentiation media. For insulin signaling studies on WT and KO adipocytes with or without SWELL1 overexpression (O/E), the cells were differentiated for 10 days and transduced with Ad5-CAG-LoxP-stop-LoxP-3× Flag-SWELL1 virus (MOI 12) on day 11 in 2% FBS containing differentiation medium. To induce the overexpression, Ad5-CMV-Cre-wt-IRES-eGFP (MOI 12) was added on day 13 in 2% FBS containing differentiation medium. The cells were then switched to 10% FBS containing differentiation medium from day 15 to 17. On day 18, the cells were starved in serum free media for 6 h and stimulated with 0 and 10 nM insulin for either 5 or 15 min. Either Ad5-CAG-LoxP-stop-LoxP-3× Flag-SWELL1 or Ad5-CMV-Cre-wt-IRES-eGFP virus transduced cells alone were used as controls. Based on GFP fluorescence, viral transduction efficiency was ˜90%.
Electrophysiology Patch-clamp recordings of β-cells and mature adipocytes were performed as described previously (Zhang et al., Nat Cell Biol, 19, 504-517, 2017; Kang et al., Nature Communications, 9, 367, 2018). 3T3-F442A WT and KO preadipocytes were prepared as described in the Cell culture section above. […]

VRAC/ICl,SWELL = target: T1, VRAC/ICl,SWELL (Homo sapiens, UniProt Q8IWT6); settings: read-out: IC50 as VRAC/ICl,SWELL inhibitor; cited from earlier work
T1 sequence (Q8IWT6 1-810): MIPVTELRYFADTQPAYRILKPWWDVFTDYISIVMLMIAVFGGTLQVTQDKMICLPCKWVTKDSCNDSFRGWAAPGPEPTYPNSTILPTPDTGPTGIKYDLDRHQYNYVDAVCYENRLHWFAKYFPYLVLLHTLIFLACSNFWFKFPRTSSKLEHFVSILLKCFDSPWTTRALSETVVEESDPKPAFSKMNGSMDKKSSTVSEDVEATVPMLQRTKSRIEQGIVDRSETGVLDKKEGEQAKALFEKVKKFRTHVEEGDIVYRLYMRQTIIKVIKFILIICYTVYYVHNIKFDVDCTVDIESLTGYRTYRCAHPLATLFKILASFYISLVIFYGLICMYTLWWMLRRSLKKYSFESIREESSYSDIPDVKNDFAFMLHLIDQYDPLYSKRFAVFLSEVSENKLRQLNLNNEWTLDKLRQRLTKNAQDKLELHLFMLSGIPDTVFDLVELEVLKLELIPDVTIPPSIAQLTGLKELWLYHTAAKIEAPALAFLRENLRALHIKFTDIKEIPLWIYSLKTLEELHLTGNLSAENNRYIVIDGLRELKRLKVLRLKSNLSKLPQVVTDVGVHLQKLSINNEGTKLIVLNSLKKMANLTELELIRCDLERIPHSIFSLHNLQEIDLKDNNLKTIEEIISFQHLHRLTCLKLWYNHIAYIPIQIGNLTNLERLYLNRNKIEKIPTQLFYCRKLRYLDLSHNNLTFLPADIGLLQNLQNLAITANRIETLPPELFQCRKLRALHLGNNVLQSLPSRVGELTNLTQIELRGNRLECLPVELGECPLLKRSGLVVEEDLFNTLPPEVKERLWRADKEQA

[2] = HFD-induced T2D mice and KKA^y model, 5 mg/kg i.p. 4-10 days
[3] = control KKA^a parental strain, 5 mg/kg x 4-10 days

Question: With `CCCCC1(C2CCCC2)Cc2cc(OCCCC(=O)O)c(Cl)c(Cl)c2C1=O` (centres unmarked) [Smod1, 4-[(2-Butyl-6,7-dichloro-2-cyclopentyl-2,3-dihydro-1-oxo-1H-inden-5-yl)oxy]butanoic acid] as the molecule, how does the “augmentation of SWELL1 expression in adipose tissue” value (SWELL1; HFD-fed T2D mice) read?
Answer: The value was 2.3 fold.

Question: And the “adipose SWELL1 expression” value (SWELL1; KKA^y mice)?
Answer: Its value is “levels comparable to both non-T2D C57/B6 mice and to the parental KKA^a parental strain”.

Question: And the “random glucose 30 minutes after injection” value ([1]; HFD fed C57BL/6 mice, 5 mg/kg i.p., acute (FIG. 23))?
Answer: The value was “no evidence of exacerbated hyperglycemia”.

Question: What about the “fasting glucose (FG)” value [1, 2] of the same molecule?
Answer: Its value is “normalized”.

Question: What about the “glucose tolerance (GTT)” value [1, 2] of the same molecule?
Answer: Its value is “normalized”.

Question: And the “insulin-tolerance (ITT)” value [1, 2]?
Answer: Its value is “markedly improved”.

Question: What about the “glucose and insulin tolerance” value [1, 3] of the same molecule?
Answer: The value was “nor does it alter glucose and insulin tolerance”.

Question: What about the hypoglycemia [1, 3] of the same molecule?
Answer: The hypoglycemia was “does not cause hypoglycemia”.

Question: What about the “FG, GTT and ITT compared to vehicle” value ([1]; lean, non-T2D, glucose-tolerant mice) of the same molecule?
Answer: The value was “similar”.

Question: And the “FG, GTT and ITT” value ([1]; re-treated after 16 weeks of HFD feeding, HFD-induced T2D mice)?
Answer: Its value is “marked improvements”.

Question: What about the IC50 (VRAC/ICl,SWELL) of the same molecule?
Answer: Its IC50 is 2 to 4 µM.
